Reference: PubChem BioAssay (NCI)
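The compound was tested at five concentrations on cells cultured in 96-well plates, with a 48-hour exposure period. TGI: concentration producing complete growth inhibition.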

Assays:
Assay in all cases: NCI tumour cell line growth inhibition, 48 h
HOP-18 NSCLC = system: HOP-18 NSCLC
SNB-75 CNS = system: SNB-75 CNS
OVCAR-4 ovarian = system: OVCAR-4 ovarian
KM12 colon = system: KM12 colon
XF 498 CNS = system: XF 498 CNS
UO-31 renal = system: UO-31 renal
SN12C renal = system: SN12C renal
SK-MEL-28 melanoma = system: SK-MEL-28 melanoma
SNB-78 CNS = system: SNB-78 CNS
UACC-257 melanoma = system: UACC-257 melanoma
MOLT-4 leukemia = system: MOLT-4 leukemia
MALME-3M melanoma = system: MALME-3M melanoma
A498 renal = system: A498 renal
NCI-H226 lung = system: NCI-H226 lung
HCT-116 colon = system: HCT-116 colon
SR leukemia = system: SR leukemia
SK-MEL-5 melanoma = system: SK-MEL-5 melanoma
LOX IMVI melanoma = system: LOX IMVI melanoma
DLD-1 colon = system: DLD-1 colon
DMS 273 small cell lung = system: DMS 273 small cell lung
OVCAR-5 ovarian = system: OVCAR-5 ovarian
OVCAR-8 ovarian = system: OVCAR-8 ovarian
LXFL 529 NSCLC = system: LXFL 529 NSCLC
RXF 393 renal = system: RXF 393 renal
RPMI-8226 leukemia = system: RPMI-8226 leukemia
SK-OV-3 ovarian = system: SK-OV-3 ovarian
IGROV1 ovarian = system: IGROV1 ovarian
CCRF-CEM leukemia = system: CCRF-CEM leukemia
HT29 colon = system: HT29 colon
A549 NSCLC = system: A549 NSCLC
786-0 renal = system: 786-0 renal
M14 melanoma = system: M14 melanoma
U251 CNS = system: U251 CNS
HL-60(TB) leukemia = system: HL-60(TB) leukemia
DMS 114 small cell lung = system: DMS 114 small cell lung
K-562 leukemia = system: K-562 leukemia
SF-268 CNS = system: SF-268 CNS
HOP-92 NSCLC = system: HOP-92 NSCLC
NCI-H460 lung = system: NCI-H460 lung
NCI-H23 lung = system: NCI-H23 lung
HOP-62 NSCLC = system: HOP-62 NSCLC
COLO 205 colon = system: COLO 205 colon
SF-295 CNS = system: SF-295 CNS
HCT-15 colon = system: HCT-15 colon
EKVX NSCLC = system: EKVX NSCLC
TK-10 renal = system: TK-10 renal
SF-539 CNS = system: SF-539 CNS
M19-MEL melanoma = system: M19-MEL melanoma
KM20L2 colon = system: KM20L2 colon
ACHN renal = system: ACHN renal
HCC-2998 colon = system: HCC-2998 colon
OVCAR-3 ovarian = system: OVCAR-3 ovarian
CAKI-1 renal = system: CAKI-1 renal

For `Cn1cnc([N+](=O)[O-])c1Sc1nc2ccccc2[nH]1`, which TGI (HOP-18 NSCLC) is on record?
The TGI was greater than 100 µM.

And the TGI (SNB-75 CNS)?
The TGI was 49.9 µM.

What about the TGI (OVCAR-4 ovarian) of the same compound?
Its TGI is greater than 100 µM.

What about the TGI (KM12 colon) of the same compound?
Its TGI is 48.4 µM.

What about the TGI (XF 498 CNS) of the same compound?
Its TGI is 18.5 µM.

What about the TGI (UO-31 renal) of the same compound?
Its TGI is 51.9 µM.

And the TGI (SN12C renal)?
Its TGI is 30.2 µM.

What about the TGI (SK-MEL-28 melanoma) of the same compound?
The TGI was 26.1 µM.

What about the TGI (SNB-78 CNS) of the same compound?
Its TGI is 88 µM.

What about the TGI (UACC-257 melanoma) of the same compound?
The TGI was 34.4 µM.

And the TGI (MOLT-4 leukemia)?
The TGI was 29.9 µM.

And the TGI (MALME-3M melanoma)?
The TGI was 35 µM.

And the TGI (A498 renal)?
The TGI was 55.9 µM.

What about the TGI (NCI-H226 lung) of the same compound?
Its TGI is 78.1 µM.

What about the TGI (HCT-116 colon) of the same compound?
The TGI was 30.1 µM.

What about the TGI (SR leukemia) of the same compound?
Its TGI is 45.1 µM.

And the TGI (SK-MEL-5 melanoma)?
The TGI was 26.2 µM.

What about the TGI (LOX IMVI melanoma) of the same compound?
Its TGI is 51 µM.

What about the TGI (DLD-1 colon) of the same compound?
The TGI was 22.2 µM.

What about the TGI (DMS 273 small cell lung) of the same compound?
The TGI was 3.43 µM.

What about the TGI (OVCAR-5 ovarian) of the same compound?
Its TGI is greater than 100 µM.

And the TGI (OVCAR-8 ovarian)?
The TGI was 30.4 µM.

And the TGI (LXFL 529 NSCLC)?
The TGI was 20.1 µM.

And the TGI (RXF 393 renal)?
Its TGI is 25.3 µM.

And the TGI (RPMI-8226 leukemia)?
Its TGI is 56.4 µM.

What about the TGI (SK-OV-3 ovarian) of the same compound?
The TGI was 61.8 µM.

What about the TGI (IGROV1 ovarian) of the same compound?
Its TGI is 54.4 µM.

And the TGI (CCRF-CEM leukemia)?
Its TGI is 90.1 µM.

And the TGI (HT29 colon)?
Its TGI is greater than 100 µM.

And the TGI (A549 NSCLC)?
The TGI was 54 µM.

What about the TGI (786-0 renal) of the same compound?
Its TGI is greater than 100 µM.

And the TGI (M14 melanoma)?
The TGI was 56.3 µM.

What about the TGI (U251 CNS) of the same compound?
The TGI was 74.5 µM.

What about the TGI (HL-60(TB) leukemia) of the same compound?
Its TGI is greater than 100 µM.

And the TGI (DMS 114 small cell lung)?
The TGI was 21.7 µM.

And the TGI (K-562 leukemia)?
Its TGI is greater than 100 µM.

What about the TGI (SF-268 CNS) of the same compound?
The TGI was 38.5 µM.

What about the TGI (HOP-92 NSCLC) of the same compound?
The TGI was 40.8 µM.

What about the TGI (NCI-H460 lung) of the same compound?
The TGI was 64.9 µM.

What about the TGI (NCI-H23 lung) of the same compound?
The TGI was 48.4 µM.

What about the TGI (HOP-62 NSCLC) of the same compound?
Its TGI is greater than 100 µM.

What about the TGI (COLO 205 colon) of the same compound?
Its TGI is 23.1 µM.

What about the TGI (SF-295 CNS) of the same compound?
Its TGI is greater than 100 µM.

And the TGI (HCT-15 colon)?
Its TGI is 33.1 µM.

What about the TGI (EKVX NSCLC) of the same compound?
The TGI was 36.9 µM.

And the TGI (TK-10 renal)?
The TGI was 40.8 µM.

What about the TGI (SF-539 CNS) of the same compound?
The TGI was 27.8 µM.

What about the TGI (M19-MEL melanoma) of the same compound?
The TGI was 29.7 µM.

And the TGI (KM20L2 colon)?
Its TGI is 61.5 µM.

And the TGI (ACHN renal)?
The TGI was 59.9 µM.

And the TGI (HCC-2998 colon)?
Its TGI is 26.9 µM.

And the TGI (OVCAR-3 ovarian)?
The TGI was greater than 100 µM.

And the TGI (CAKI-1 renal)?
Its TGI is 17.2 µM.
